# Experimental data from patent US5262417A, “Antibacterial quinolone compounds” (The Upjohn Company, priority 1991, dated 1993).
# Several values for one entry are separate records, joined by “and”; a condition that tells them apart may be missing. Identical values can stand only once. Like-named read-outs stand apart in the source and are kept apart here.
# How the values were obtained:
# Format in all cases: cell-based
# Proteus penneri = assay: Minimum inhibitory concentration (MIC) by agar dilution; conditions: for MIC: Proteus penneri
# Procedure, shortened: (§1)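 Compounds were serially diluted into molten unsupplemented Mueller Hinton agar at 47° C and plates were poured. Bacteria grown overnight on MHA at 35° C were brought to 0.5 McFarland turbidity in Trypticase soy broth, diluted 1:20 and spot-inoculated with a Steers replicator.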
# Escherichia coli = assay: as above; conditions: for MIC: Escherichia coli
# Procedure, shortened: as §1
# [1] = tested on: Acinetobacter calcoaceticus; assay: as above; conditions: for MIC: Acinetobacter calcoaceticus
# Procedure, shortened: as §1
# Klebsiella pneumoniae = assay: as above
# Procedure, shortened: as §1
# Citerobacter freundii = assay: as above
# Procedure, shortened: as §1
# Streptococcus pneumoniae = assay: as above; conditions: for MIC: Streptococcus pneumoniae
# Procedure, shortened: as §1
# Serratia marcescens = assay: as above; conditions: 20 h, read-out: MINIMUM INHIBITORY CONCENTRATION
# Procedure, shortened: as §1
# Streptococcus faecalis = assay: as above; conditions: Enterococcus faecalis
# Procedure, shortened: as §1
# Pseudomonas aeruginosa = assay: as above; conditions: for MIC: Pseudomonas aeruginosa
# Procedure, shortened: as §1
# [2] = tested on: Pseudomonas aeruginosa UC 95 (PA); assay: Dipped disk (disk-diffusion) assay, disks loaded with 0.10 ml; conditions: Pseudomonas aeruginosa, UC95; Conc 1 mg/ml, 0.10 ml per disk; read-out: Growth Inhibition Zone, PA
# Description: (§2) The effectiveness of the subject compounds on some bacteria were obtained by performing a dipped disk assay. The antibacterial activity of the compounds is determined by the disk-diffusion method. […] They were then applied to the surface of microorganism-seeded agar assay trays, which contained the bacterial strain Pseudomonas aeruginosa UC 95 )PA), Escherichia coli UC 51 (EC) or Staphylococcus aureus UC 80 (SA). The assay trays were incubated overnight under aerobic condition to allow for the growth of the organisms. Zones of growth inhibition due to the action of the antibiotic were then measured to the nearest millimeter.
# [3] = tested on: Staphylococcus aureus UC 80 (SA); assay: as above
# Description: as §2
# [4] = tested on: Pseudomonas aeruginosa UC 95 (PA); assay: Dip disk (disk-diffusion) assay, disks loaded with 0.05 ml; conditions: Pseudomonas aeruginosa, UC95; 0.1 mcg/ml, 0.05 ml per disk; read-out: Growth Inhibition zone, PA
# Description: (§3) The effectiveness of the subject compounds on bacteria were obtained by performing a dip disk assay. The antibacterial activity of the compounds was determined by the disk-diffusion method. Paper disks (12.7 mm) were loaded with 0.05 ml of drug solution prepared at a concentration of 0.1 mcg/ml; the disks were allowed to air dry. They were then applied to the surface of microorganism-seeded agar assay trays, which contained the bacterial strain Pseudomonas aeruginosa UC 95 (PA), Escherichia coli UC 51 (EC), Klebsiella pneumoniae UC 57 (KP), or Staphylococcus aureus UC 80 (SA). The assay trays were incubated overnight under aerobic condition to allow for the growth of the organisms. Zones of growth inhibition due to the action of the antibiotic were then measured to the nearest millimeter.
# (§4) The effectiveness of additional compounds 5-9, (5-7 are Formula IAa compounds and 8 and 9 are Formula IAb compounds) on bacteria were obtained by performing a dip disk assay as described above. The antibacterial activity of the compounds was determined by the disk-diffusion method where the disks were loaded with 0.05 ml of drug solution prepared at a concentration of 1.0 mcg/ml; the disks were allowed to air dry.
# [5] = tested on: Staphylococcus aureus UC 80 (SA); assay: as above; conditions: Staphylococcus aureus, UC80, read-out: Growth Inhibition zone, SA
# Description: as §3, §4
# [6] = tested on: Escherichia coli UC 51 (EC); assay: as above; conditions: Escherichia coli, UC51; 0.1 mcg/ml, 0.05 ml per disk; read-out: Growth Inhibition zone, EC
# Description: as §3, §4
# [7] = tested on: Escherichia coli UC 51 (EC); assay: Dipped disk (disk-diffusion) assay, disks loaded with 0.10 ml; set-up: zone of inhibition: dose or concentration left out as unconfirmed
# Description: as §2
# [8] = 20 h, read-out: MINIMUM INHIBITORY CONCENTRATION
smiles,measurement,setting,value
"O=C(O)c1cn(C2CC2)c2cc(N3CCNCC3)c(F)cc2c1=O [Ciprofloxacin, reference compound]",MINIMUM INHIBITORY CONCENTRATION,"Proteus penneri; Cult No. 9679, MHA",0.03 mcg per ml and 0.015 mcg per ml
same,MIC,"Proteus penneri; 20 h, read-out: MINIMUM INHIBITORY CONCENTRATION, Cult No. 9679, MHA",0.015 µg/mL
same,MIC,"Proteus penneri; UC9679, 20 h, read-out: Minimum Inhibitory Concentration, P. penneri UC 9679, Table CI",0.015 µg/mL
same,MINIMUM INHIBITORY CONCENTRATION,"Escherichia coli; Cult No. 9855, MHA",0.015 mcg per ml and 0.03 mcg per ml
same,MINIMUM INHIBITORY CONCENTRATION,"Escherichia coli; Cult No. 9952, MHA",0.015 mcg per ml and < 0.008 mcg per ml
same,MIC,"Escherichia coli; 20 h, read-out: MINIMUM INHIBITORY CONCENTRATION, Cult No. 6674, MHA",0.015 µg/mL
same,MIC,"Escherichia coli; 20 h, read-out: MINIMUM INHIBITORY CONCENTRATION, Cult No. 9451, MHA",0.015 µg/mL
same,MIC,"Escherichia coli; 20 h, read-out: MINIMUM INHIBITORY CONCENTRATION, Cult No. 9855, MHA",0.015 µg/mL
same,MIC,"Escherichia coli; 20 h, read-out: MINIMUM INHIBITORY CONCENTRATION, Cult No. 9952, MHA",0.015 µg/mL
same,MIC,"Escherichia coli; UC6674, 20 h, E. coli UC 6674, Table CI, read-out: Minimum Inhibitory Concentration",0.015 µg/mL
same,MIC,"Escherichia coli; UC9451, 20 h, E. coli UC 9451, Table CI, read-out: Minimum Inhibitory Concentration",0.015 µg/mL
same,MIC,"Escherichia coli; UC9855, 20 h, E. coli UC 9855, Table CI, read-out: Minimum Inhibitory Concentration",0.015 µg/mL
same,MIC,"Escherichia coli; UC9952, 20 h, E. coli UC 9952, Table CI, read-out: Minimum Inhibitory Concentration",< 0.008 µg/mL
same,MIC,"[1]; 20 h, read-out: MINIMUM INHIBITORY CONCENTRATION, Cult No. 12170, MHA",0.25 µg/mL
same,MIC,"[1]; UC12170, 20 h, read-out: Minimum Inhibitory Concentration, A. calcoaceticus UC 12170, Table CI",0.25 µg/mL
same,MINIMUM INHIBITORY CONCENTRATION,"[1]; Cult No. 12170, MHA",0.25 mcg per ml and 0.125 mcg per ml
same,MIC,Klebsiella pneumoniae; [8],0.03 µg/mL
same,MIC,"Klebsiella pneumoniae; UC12081, 20 h, read-out: Minimum Inhibitory Concentration",0.03 µg/mL
same,MIC,Citerobacter freundii; [8],< 0.008 µg/mL
same,MIC,"Citerobacter freundii; Citrobacter freundii, UC3507, 20 h, read-out: Minimum Inhibitory Concentration",< 0.008 µg/mL
same,MINIMUM INHIBITORY CONCENTRATION,"Streptococcus pneumoniae; Cult No. 41, MHA",0.5 mcg per ml and 0.25 mcg per ml
same,MIC,"Streptococcus pneumoniae; 20 h, read-out: MINIMUM INHIBITORY CONCENTRATION, Cult No. 41, MHA",0.5 µg/mL
same,MIC,"Streptococcus pneumoniae; UC41, 20 h, read-out: Minimum Inhibitory Concentration, S. pneumoniae UC 41, Table CI",0.5 µg/mL
same,MIC,Serratia marcescens,0.06 µg/mL
same,MIC,Streptococcus faecalis; [8],0.5 µg/mL
same,MIC,"Streptococcus faecalis; UC9217, 20 h, read-out: Minimum Inhibitory Concentration",0.5 µg/mL
same,MINIMUM INHIBITORY CONCENTRATION,"Pseudomonas aeruginosa; Cult No. 9191, MHA",0.25 mcg per ml and 0.125 mcg per ml
same,MIC,"Pseudomonas aeruginosa; 20 h, read-out: MINIMUM INHIBITORY CONCENTRATION, Cult No. 6676, MHA",0.5 µg/mL
same,MIC,"Pseudomonas aeruginosa; 20 h, read-out: MINIMUM INHIBITORY CONCENTRATION, Cult No. 9191, MHA",0.25 µg/mL
same,MIC,"Pseudomonas aeruginosa; 20 h, read-out: MINIMUM INHIBITORY CONCENTRATION, Cult No. 12120, MHA",0.125 µg/mL
same,MIC,"Pseudomonas aeruginosa; UC6676, 20 h, read-out: Minimum Inhibitory Concentration, Ps. aeruginosa UC 6676, Table CI",0.5 µg/mL
same,MIC,"Pseudomonas aeruginosa; UC9191, 20 h, read-out: Minimum Inhibitory Concentration, Ps. aeruginosa UC 9191, Table CI",0.125 µg/mL
same,MIC,"Pseudomonas aeruginosa; UC12120, 20 h, read-out: Minimum Inhibitory Concentration, Ps. aeruginosa UC 12120, Table CI",0.125 µg/mL
same,zone of inhibition at 1000 µg/mL,[2],48 mm
same,"Growth Inhibition Zone, SA","[3]; Conc 1 mg/ml, 0.10 ml per disk",30 mm
same,zone of inhibition at 1000 µg/mL,"[3]; Staphylococcus aureus, UC80, read-out: Growth Inhibition Zone, SA, Conc 1 mg/ml, 0.10 ml per disk",28 mm
same,zone of inhibition at 0.1 µg/mL,[4],38 mm
same,zone of inhibition at 0.1 µg/mL,[5],27 mm
same,zone of inhibition at 0.1 µg/mL,[6],29 mm
same,"Growth Inhibition Zone, EC","[7]; Conc 1 mg/ml, 0.10 ml per disk",35 mm
same,zone of inhibition,"[7]; Escherichia coli, UC51, 0.10 ml per disk, read-out: Growth Inhibition Zone, EC",33 mm
